Measured values from patent US9345671B2, “Adiponectin production enhancer” (Daiichi Sankyo Company, Limited, priority 2003, dated 2016).

Legend:
[1] = test system: adiponectin mRNA; assay: Measurement of adiponectin mRNA by quantitative RT-PCR in 3T3-L1 adipocytes; assay type: cell-based; conditions: test compound 10 μM, 48 hours then 24 hours after replacing the medium, 36B4 internal control
Experimental: Preadipocyte cell line 3T3-L1 was purchased from the American Type Culture Collection (ATCC). […] Subsequently, the medium was replaced with fresh growth medium every 3 days, and the 3T3-L1 adipocytes were prepared on day 10 after the start of differentiation. Test compounds that were poorly soluble in water were used after dissolving in DMSO. Test compounds that were easily soluble in water were dissolved in sterile water followed by addition of the same amount of DMSO as that used for the aforementioned poorly water-soluble test compounds. In addition, in the case of test compounds that are poorly soluble in water, the test compound may be dissolved in ethanol and used following the addition of 0.1 N aqueous sodium hydroxide solution after shaking as necessary. After allowing the 3T3-L1 cells to adequately differentiate into adipocytes, a test compound was added to the medium to a final concentration of 10 μM followed by culturing the cells for 48 hours. The cells were additionally cultured for 24 hours after replacing the medium. […] The synthesized cDNA was amplified using FastStrand DNA Master SYBR Green I (Roche Diagnostics), and the amplified PCR product was detected with LightCycler (Roche Diagnostics). […] The adiponectin mRNA amount was measured according to quantitative RT-PCR.

[2] = test system: secreted adiponectin; assay: Measurement of amount of secreted adiponectin in 3T3-L1 adipocyte culture supernatant by Western blotting; assay type: cell-based; conditions: 3T3-L1 adipocytes culture supernatant, test compound 10 μM, 48 hours then 24 hours after replacing the medium; densitometer
Experimental: Preadipocyte cell line 3T3-L1 was purchased from the American Type Culture Collection (ATCC). […] Subsequently, the medium was replaced with fresh growth medium every 3 days, and the 3T3-L1 adipocytes were prepared on day 10 after the start of differentiation. Test compounds that were poorly soluble in water were used after dissolving in DMSO. Test compounds that were easily soluble in water were dissolved in sterile water followed by addition of the same amount of DMSO as that used for the aforementioned poorly water-soluble test compounds. In addition, in the case of test compounds that are poorly soluble in water, the test compound may be dissolved in ethanol and used following the addition of 0.1 N aqueous sodium hydroxide solution after shaking as necessary. After allowing the 3T3-L1 cells to adequately differentiate into adipocytes, a test compound was added to the medium to a final concentration of 10 μM followed by culturing the cells for 48 hours. The cells were additionally cultured for 24 hours after replacing the medium. […] Secretion of adiponectin into culture supernatant was detected by Western blotting. […] After washing the PVDF membrane, the adiponectin bands were detected using ECL Detection Reagents (Amersham-Pharmacia). The bands were quantified with a densitometer (Molecular Devices). The amounts of secreted adiponectin were analyzed by Western blotting.

[3] = test system: C57BL/6J mice; assay: Administration of pravastatin to mice in feed: blood glucose levels and adiponectin concentrations; assay type: in vivo; conditions: 0.06% (wt/wt) in feed for 15 weeks
Experimental: The body weights of the animals were measured and blood samples were collected on the day the test started, and the animals were divided into two groups of 5 animals per cage based on their body weights and blood glucose levels. […] Blood samples were collected from the tail vein in an amount equal to one heparinized capillary tube.
The amount of feed and general behaviour were checked at least once a day.
Blood glucose levels were measured on the days when blood samples were collected.

[4] = test system: C57BL/6J mice; assay: Insulin tolerance test using pravastatin-dosed mice; assay type: in vivo; conditions: C57BL/6J mice dosed in feed for 15 weeks, fasted 2 hours, insulin 0.5 u/kg intraperitoneally; significantly lower than non-dose group (148 mg/dl)
Experimental: A group administered with pravastatin by mixing in feed for 15 weeks and a non-dosed group of C57BL/6J mice (n=5) were fasted for 2 hours. After measuring the body weight of each animal, insulin (Humalin, Lilly) was administered intraperitoneally at 0.5 u/kg, and blood samples were collected from the tail vein immediately before the start of administration and at 15, 30, 60 and 90 minutes after the start of administration followed by measurement of blood glucose levels.

[5] = test system: C57BL/6J mouse adipocytes; assay: Glucose uptake test using isolated adipocytes from pravastatin-dosed mice; assay type: in vivo
Experimental: (i) Epididymal adipose tissue was excised from a group administered with pravastatin for 16 weeks and a non-dosed group of C57BL/6J mice (n=5). The excised adipose tissue was handled under conditions of 37° C. at all times. The adipose tissue was cut into small pieces with a scissors, followed by the addition of medium (DMEM, 1 mM sodium pyruvate, 25 mM HEPES pH 7.4, 0.1% BSA, 100 u/ml penicillin, 0.1 mg/ml streptomycin) containing 1 mg/ml of collagenase I (Worshington), and shaking at 37° C. and 80 rpm. Following the reaction, 2.5 volumes of the aforementioned medium were added, the adipocytes were screened out by passing the cell suspension through a 260 μm mesh sieve, and again passed through a 100 μm mesh sieve to prepare an adipocyte suspension. […] Subsequently, 0.6 μCi of ^3H-labeled 2-deoxyglucose was added and allowed to react for 30 minutes. Following the reaction, the cell suspension was immediately transferred to a centrifuge tube containing silicone oil and centrifuged. After cutting out the oil layer of the upper layer containing adipocytes with a knife, it was transferred to a glass vial containing 4 ml of Hionic Fluor (Perkin-Elmer) liquid scintillation counter cocktail followed by measurement of specific radioactivity. The amount of measured radioactivity of the ^3H-2-deoxyglucose was used as an indicator of the amount of glucose taken up by the cells. (4) Results

SMILES	amount of adiponectin mRNA relative to the control group [1] [times]	amount of secreted adiponectin relative to the control group [2] [times]	blood glucose levels, dose group versus non-dose group [3]	adiponectin concentrations in dose group relative to non-dose group ([3]; blood) [times]	blood glucose level at 60 minutes after administration of insulin [4] [mg/dL]	insulin sensitivity versus non-dose group ([5]; adipocytes isolated from C57BL/6J mice dosed for 16 weeks)	amount of glucose uptake relative to non-dose group ([5]; epididymal adipocytes isolated from C57BL/6J mice dosed for 16 weeks, insulin-induced 3H-2-deoxyglucose uptake) [times]
CC(C)c1nc(N(C)S(C)(=O)=O)nc(-c2ccc(F)cc2)c1/C=C/[C@@H](O)C[C@@H](O)CC(=O)O [rosuvastatin, (+)-(3R,5S)-7-[4-(4-fluorophenyl)-6-isopropyl-2-(N-methyl-N-methanesulfonylamino)pyrimidin-5-yl]-3,5-dihydroxy-6(E)-heptenoic acid]	1.3	1.6	–	–	–	–	–
CC[C@H](C)C(=O)O[C@H]1C[C@H](O)C=C2C=C[C@H](C)[C@H](CC[C@@H](O)C[C@@H](O)CC(=O)O)[C@H]21 [pravastatin, (+)-(3R,5R)-3,5-dihydroxy-7-[(1S,2S,6S,8S,8aR)-6-hydroxy-2-methyl-8-[(S)-2-methylbutyryloxy]-1,2,6,7,8,8a-hexahydro-1-naphthyl]heptanoic acid]	1.6	1.7	no significant differences	1.28	110	increased insulin sensitivity	1.4
